Reference: paper PMC7827417, “Steroid Glycosides Hyrcanoside and Deglucohyrcanoside: On Isolation, Structural Identification, and Anticancer Activity” (Foods, 2021)
Like-named read-outs stand apart in the source and are kept apart here.

Key:
MCF-7 = assay: MTS cytotoxic assay, MCF-7; type: cell-based; settings: Homo sapiens
Description: (§1) If not indicated otherwise, the cell lines were purchased from the American Type Culture Collection (ATCC). […] K562 is the erythroid-myeloid precursor cell line derived from chronic myeloid leukemia carrying the BCR-ABL hybrid gene. A549, MCF-7, PC-3, 5637, U-2 OS, and MiaPaCa-2 are cells derived from lung, breast, prostate, bladder carcinoma, osteosarcoma, and pancreatic adenocarcinoma, respectively. HEK 293T are transformed human embryonic kidney cells, and L929 (Sigma, St. Louis, MS, USA) are transformed mouse fibroblasts. HCT116, cells from colorectal carcinoma, and their p53 gene knock-out variant (HCT116p53-/-) were purchased from Horizon Discovery. This cell line is a model of human tumors bearing p53 loss-of-function mutations or biallelic deletion of the p53 gene, frequently associated with poor prognosis. The MRC-5 and BJ cells were used as noncancerous cells; more specifically, they are human fibroblasts from the lungs and foreskin, respectively. According to the supplier’s recommendations, all cells were cultured at 37 °C in a 5% CO2 atmosphere and 100% humidity. The culture media used were: DMEM, RPMI 1640, and MEM (according to a cell line); all were supplemented with 5 g L^−1 glucose, 10% fetal calf serum, 2 mM glutamine, 100 U mL^−1 penicillin, 100 µg mL^−1 streptomycin, and NaHCO3. Cells were passaged every two or three days using 0.25% trypsin plus 0.01% EDTA (ethylenediamine tetraacetic acid) in phosphate-buffered saline.
(§2) To evaluate compound cytotoxicity, cells were seeded in 384-well microtiter plates in a volume of […]. The next day, aliquots of the tested derivatives were transferred with Echo550 acoustic liquid handler (Labcyte) to obtain dose response curves with dilution factor 4. The experiments were performed in technical duplicates and three or more biological replicates. After 72 h of incubation in a humidified incubator, […] of the MTS/PMS stock solution were pipetted into each well. After another 1–4 h of incubation, the absorbance at 490 nm was measured using an EnVision Multilabel Plate Reader (PerkinElmer).

mouse peritoneal cells = assay: Viability of mouse peritoneal primary cells (macrophages), WST-1; type: cell-based; settings: 24 h; for IC50: Mus musculus, Macrophage, WST-1, lowest tested concentration 1 nM, read-out: concentration at which IC50 was reached in mouse macrophages
Procedure: Female mice of the inbred strain C57BL/6, eight to ten weeks old, were purchased from Charles River Deutschland (Sulzfeld, Germany). They were kept in transparent plastic cages in groups of ten. The animals were housed with food and water ad libitum, lighting was set on 6–18 h, and the temperature was set at 22 °C. All protocols were approved by the institutional ethics committee (MSMT15894/2013-310). Animals, killed by cervical dislocation, were intraperitoneally injected with 8 mL of sterile saline. Pooled peritoneal cells collected from mice were washed in sterile saline, re-suspended in the culture medium, and seeded into 96-well microplates in final 100-μL volumes (Costar, Cambridge, MA, USA). The final density of the cells was 0.25 × 10^6 per mL^−1. The cultures were maintained with or without compounds for 24 h at 37 °C with 5% CO2 in a humidified Heraeus incubator in complete RPMI-1640 (Merck-Sigma, St. Louis, MS, USA), which contained 10% heat-inactivated fetal bovine serum, 2 mM of L-glutamine, 50 μg·mL^−1 of gentamicin, and 5 × 10^−5 M of 2-mercaptoethanol (all Merck-Sigma, St. Louis, MS, USA). Compounds (Ob, Cy (cymarin), Hyr, deHyr) were prepared as 100 mM stock solutions in dimethyl sulfoxide (DMSO) with cell culture grade. The next dilution continued immediately before the experiment with the culture medium. To eliminate the influence of DMSO, equal levels of DMSO were added to the experimental groups.
The viability of mouse peritoneal cells was determined using a colorimetric assay based on the cleavage of the tetrazolium salt WST-1 by mitochondrial dehydrogenases in viable cells (Merck-Sigma, St. Louis, MS, USA). The cells were cultured as described above. After 24 h of culture, the WST-1 was added, and the cells were kept in the Heraeus incubator at 37 °C for an additional 3 h. Optical density at 450/690 nm was determined. The cytotoxicity of the tested CGs was expressed as a percentage. The test samples were related to control samples consisting of untreated cells and samples with 100% dead cells evoked by 1% Triton, according to the formula: ((exp. value − control value)/(Triton value − control value)) × 100. All control and experimental variants were run in quadruplicates. The data were analyzed using GraphPad Prism software 6.05 (GraphPad, San Diego, CA, USA). Values were expressed as the mean ± standard error of the mean (SEM).

PC-3 = assay: MTS cytotoxic assay, PC-3; type: cell-based; settings: Homo sapiens
Description: as §1, §2

BJ = assay: MTS cytotoxic assay, BJ; type: cell-based; settings: Homo sapiens, 72 h
Description: as §1, §2

[1] = system: rat vascular smooth muscle cells, endothelial cells, and astrocytes; parameters: method as in PMID 26067145; settings: high concentrations of Ob (3–3000 μM) ref 54; cited from earlier work
SH-SY5Y cells = system: SH-SY5Y cells; parameters: method as in PMID 25838173; settings: cited from earlier work
[2] = WST-1, 0.001–100.0 µM, not dose-dependent

| Compound | IC50 (MCF-7; MCF7, 72 h) [nM] | cytotoxicity to mouse macrophages, % of the control (mouse peritoneal cells; [2]) | IC50 (mouse peritoneal cells) [nM] | IC50 (PC-3; PC-3, 72 h) [nM] | IC50 (BJ; BJ) [nM] | IC50 (MCF-7; MCF7, MCF-7, MTS, 72 h, read-out: IC50) [nM] | survival of rodent cells (in words) [1] | decrease of viability of mouse macrophages compared to the control (mouse peritoneal cells; WST-1, independent of concentration 1 nm–100 µM) | cytotoxicity to mouse macrophages (in words) (mouse peritoneal cells; up to 100 µM concentration) | reduction of viability (SH-SY5Y cells; 24 h ref 53) [%] | reduction of viability (SH-SY5Y cells; 48 h ref 53) [%] | IC50 (PC-3; PC-3, MTS, 72 h, read-out: IC50) [nM] | IC50 (BJ; BJ noncancerous foreskin fibroblasts, MTS, read-out: IC50) [nM] | viability of mouse macrophages reduced to % of the control (mouse peritoneal cells; [2]) [%] |
| --- | --- | --- | --- | --- | --- | --- | --- | --- | --- | --- | --- | --- | --- | --- |
| CO[C@H]1C[C@H](O[C@H]2CC[C@]3(C=O)[C@H]4CC[C@]5(C)[C@@H](C6=CC(=O)OC6)CC[C@]5(O)[C@@H]4CC[C@]3(O)C2)O[C@H](C)[C@H]1O [Cy, cymarin] | 29 ± 8.1 | about 60% | ≤ 1 | 26 ± 2.9 | 54 ± 10 |  |  |  |  |  |  |  |  |  |
| C[C@@H]1O[C@@H](O[C@H]2C[C@@H](O)[C@]3(CO)[C@H]4[C@H](O)C[C@]5(C)[C@@H](C6=CC(=O)OC6)CC[C@]5(O)[C@@H]4CC[C@]3(O)C2)[C@H](O)[C@H](O)[C@H]1O [Ob, ouabain] |  |  |  |  |  | 52 ± 5.6 | perfectly survived | 10–20% | did not exhibit significant cytotoxicity | 40 | 10 | 49 ± 1.4 | 54 ± 9.9 |  |
| C[C@]12CC[C@H]3[C@@H](CCC4=C[C@@H](O[C@@H]5OC[C@@H](O[C@@H]6O[C@H](CO)[C@@H](O)[C@H](O)[C@H]6O)[C@H](O)[C@H]5O)CC[C@@]43C=O)[C@@]1(O)CC[C@@H]2C1=CC(=O)OC1 [Hyr, (3β)-3-[(4-O-β-D-glucopyranosyl-β-D-xylopyranosyl)oxy]-14-hydroxy-19-oxocarda-4,20(22)-dienolide] | 566 ± 29 | about 60% | ~100 | 756 ± 29 | 1450 ± 250 |  |  |  |  |  |  |  |  |  |
| C[C@]12CC[C@H]3[C@@H](CCC4=C[C@@H](O[C@@H]5OC[C@@H](O)[C@H](O)[C@H]5O)CC[C@@]43C=O)[C@@]1(O)CC[C@@H]2C1=CC(=O)OC1 [deHyr, deglucohyrcanoside] | 119 ± 6.4 |  | ~10 | 122 ± 4.7 | 230 ± 35 |  |  |  |  |  |  |  |  | 50 |
